Reference: article PMC6199744, “Development of Chemical Proteomics for the Folateome and Analysis of the Kinetoplastid Folateome” (ACS Infectious Diseases, 2018)
Where two headings read alike, the source gives them in different places.

System: T. brucei lysate proteins
Assay type: binding, Trypanosoma brucei

Nc1nc2cccc(-c3ccccc3)c2n1Cc1ccc(Cl)c(Cl)c1 [compound 3]
fold change - vehicle control (protein TB927.7.5340 HY[…], CONSERVED): 0.45
fold change - vehicle control (protein TB927.7.7430 ATP SYNTHASE ALPHA CHAIN, MIT[…]): 0.95
fold change - vehicle control (protein TB927.8.1990 PEROXIDOXIN): 0.95
fold change - vehicle control (protein TB927.8.4720 AMINO ACID TRANSPORTER, PUTATIVE): 0.82
fold change - vehicle control (protein TB927.8.890 SMALL GTP-BINDING PROTEIN RAB1, PUTATIVE): 0.96
fold change (relative to vehicle control = 1, protein TB09.160.2550 RIBOSOMAL PROTEIN S7, PUTATIVE): 0.97
fold change (relative to vehicle control = 1, protein TB09.160.3270 ATP-DEPENDENT DEAD BOX HELICASE, PUTATIVE): 1
fold change (relative to vehicle control = 1, protein TB09.160.4250 TR[…]): 0.95
fold change (relative to vehicle control = 1, protein TB09.211.3540 GLYCEROL KINASE, GLYCOSOMAL): 0.92
fold change (relative to vehicle control = 1, protein TB11.01.1270 NUCLEIC ACID BINDING PROTEIN, PUTATIVE): 0.99
fold change (relative to vehicle control = 1, protein TB11.02.1135 DYNEIN LIGHT CHAIN, PUTATIVE): 1
fold change (relative to vehicle control = 1, protein TB11.02.2960 MIT[…] PROTEIN, PUTATIVE): 0.96
fold change (relative to vehicle control = 1, protein TB11.02.4700 14-3-3 PROTEIN): 0.87
fold change (relative to vehicle control = 1, protein TB11.03.0815 DYNEIN LIGHT CHAIN): 0.99
fold change (relative to vehicle control = 1, protein TB427TMP.01.0480 HY[…], CONSERVED): 0.95
fold change (relative to vehicle control = 1, protein TB427TMP.01.1400 GLYCYL-TRNA SYNTHETASE, PUTATIVE): 0.9
fold change (relative to vehicle control = 1, protein TB427TMP.01.1680 POLYUBIQUITIN, PUTATIVE): 0.93
fold change (relative to vehicle control = 1, protein TB427TMP.01.1830 HY[…], CONSERVED): 1
fold change (relative to vehicle control = 1, protein TB427TMP.01.3370 […] PROTEIN, PUTATIVE): 0.94
fold change (relative to vehicle control = 1, protein TB427TMP.01.6880 CYTOSOLIC COAT PROTEIN, PUTATIVE): 0.81
fold change (relative to vehicle control = 1, protein TB427TMP.01.7530 HY[…], CONSERVED): 0.93
fold change (relative to vehicle control = 1, protein TB427TMP.02.1120 ADENYL[…], PUTATIVE): 0.99
fold change (relative to vehicle control = 1, protein TB427TMP.02.1460 HY[…], CONSERVED): 0.95
fold change (relative to vehicle control = 1, protein TB427TMP.02.2120 NUCLEOPORIN 48): 0.94
fold change (relative to vehicle control = 1, protein TB427TMP.02.2970 KINESIN, PUTATIVE): 0.91
fold change (relative to vehicle control = 1, protein TB427TMP.02.3120 MALIC ENZYME, PUTATIVE): 0.82
fold change (relative to vehicle control = 1, protein TB427TMP.02.4550 HY[…], CONSERVED): 1
fold change (relative to vehicle control = 1, protein TB427TMP.02.5450 GLUCOSE-REGULATED PROTEIN 78, PUTATIVE): 0.93
fold change (relative to vehicle control = 1, protein TB427TMP.03.0090 RIBOKINASE, PUTATIVE): 0.84
fold change (relative to vehicle control = 1, protein TB427TMP.160.4770 PROTEIN KINASE, PUTATIVE): 0.93
fold change (relative to vehicle control = 1, protein TB427TMP.160.4910 FLAVOPROTEIN MONOOXYGENASE, PUTATIVE): 0.97
fold change (relative to vehicle control = 1, protein TB427TMP.18.0005 HY[…], CONSERVED): 0.93
fold change (relative to vehicle control = 1, protein TB427TMP.22.0004 HY[…], CONSERVED): 0.97
fold change (relative to vehicle control = 1, protein TB427TMP.39.0006 T[…] EIF2B DELTA SUBUNIT, PUTATIVE): 0.9
fold change (relative to vehicle control = 1, protein TB427.01.4050 PROTEIN P[…] EF-HAND DOMAINS (PPEF)): 0.93
fold change (relative to vehicle control = 1, protein TB427.02.1170 RETRO[…] SPOT (RHS) PROTEIN, PUTATIVE): 0.96
fold change (relative to vehicle control = 1, protein TB427.02.6220 ADENOSINE TRANSPORTER 2, PUTATIVE): 0.98
fold change (relative to vehicle control = 1, protein TB427.03.3160 POLY(A) POLYMERASE): 0.77
fold change (relative to vehicle control = 1, protein TB427.03.3560 HY[…], CONSERVED): 0.83
fold change (relative to vehicle control = 1, protein TB427.03.5420 PROTEIN TRANSPORT PROTEIN SEC24): 0.9
fold change (relative to vehicle control = 1, protein TB427.04.1510 PHOSPHOLIPID-TRA[…], PUTATIVE): 0.86
fold change (relative to vehicle control = 1, protein TB427.05.2320 HY[…], CONSERVED): 0.8
fold change (relative to vehicle control = 1, protein TB427.05.300 THYMINE-7-HYDROXYLASE, PUTATIVE): 0.82
fold change (relative to vehicle control = 1, protein TB427.05.4530 FATTY ACID ELONGASE, PUTATIVE): 0.77
fold change (relative to vehicle control = 1, protein TB427.05.520 STOMATIN-LIKE PROTEIN, PUTATIVE): 1
fold change (relative to vehicle control = 1, protein TB427.06.2550 RNA-BINDING PROTEIN, PUTATIVE): 1.2
fold change (relative to vehicle control = 1, protein TB427.06.3650 ADP-RI[…], PUTATIVE): 0.91
fold change (relative to vehicle control = 1, protein TB427.06.3860 HY[…], CONSERVED): 0.97
fold change (relative to vehicle control = 1, protein TB427.07.2340 40S RIBOSOMAL PROTEIN S15, PUTATIVE): 0.87
fold change (relative to vehicle control = 1, protein TB427.07.2570 MRNA […], PUTATIVE): 0.63
fold change (relative to vehicle control = 1, protein TB427.07.4180 FATTY ACID ELONGASE, PUTATIVE): 0.92
fold change (relative to vehicle control = 1, protein TB427.07.7500 THYMINE-7-HYDROXYLASE, PUTATIVE): 0.88
fold change (relative to vehicle control = 1, protein TB427.08.3150 T-COMPLEX PROTEIN 1, GAMMA SUBUNIT, PUTATIVE): 0.99
fold change (relative to vehicle control = 1, protein TB427.08.3490 HY[…], CONSERVED): 0.95
fold change (relative to vehicle control = 1, protein TB427.08.5460 FLAGELLAR CALCIUM-BINDING PROTEIN): 0.72
fold change (relative to vehicle control = 1, protein TB427.08.6110 HY[…], CONSERVED): 0.82
fold change (relative to vehicle control = 1, protein TB427.10.11930 NAD OR NADP DEPENDENT OXIDOREDUCTASE, PUTATIVE): 0.78
fold change (relative to vehicle control = 1, protein TB427.10.12510 P-TYPE H+-ATPASE, PUTATIVE): 1
fold change (relative to vehicle control = 1, protein TB427.10.13110 DYNEIN LIGHT CHAIN, PUTATIVE): 0.88
fold change (relative to vehicle control = 1, protein TB427.10.13880 HY[…], CONSERVED): 0.88
fold change (relative to vehicle control = 1, protein TB427.10.14140 PYRUVATE KINASE 1): 0.93
fold change (relative to vehicle control = 1, protein TB427.10.14910 SA[…] GLYCOPROTEIN, PUTATIVE): 0.83
fold change (relative to vehicle control = 1, protein TB427.10.15180 […] PROTEIN, PUTATIVE): 1.2
fold change (relative to vehicle control = 1, protein TB427.10.2350 PYRUVATE DEH[…] E3 BINDING PROTEIN, PUTATIVE): 1
fold change (relative to vehicle control = 1, protein TB427.10.4940 NUCLEAR DBF2-RELATED KINASE): 0.8
fold change (relative to vehicle control = 1, protein TB427.10.7630 HY[…], CONSERVED): 0.97
fold change (relative to vehicle control = 1, protein TB427.10.9800 60S RIBOSOMAL PROTEIN L22): 0.82
fold change (relative to vehicle control = 1, protein TB927.10.13360 […] TU, PUTATIVE): 0.96
fold change (relative to vehicle control = 1, protein TB927.1.2330 BETA TUBULIN): 0.96
fold change (relative to vehicle control = 1, protein TB927.1.2400 ALPHA TUBULIN): 0.96
fold change (relative to vehicle control = 1, protein TB927.10.3280 60S RIBOSOMAL PROTEINS L38, PUTATIVE): 0.99
fold change (relative to vehicle control = 1, protein TB927.10.4180 TFIIF-[…] PHOSPHATASE, PUTATIVE): 0.97
fold change (relative to vehicle control = 1, protein TB927.10.4690 DYNEIN LIGHT CHAIN, PUTATIVE): 0.9
fold change (relative to vehicle control = 1, protein TB927.10.5330 40S RIBOSOMAL PROTEIN S18, PUTATIVE): 0.74
fold change (relative to vehicle control = 1, protein TB927.10.6670 DYNEIN LIGHT CHAIN, PUTATIVE): 0.92
fold change (relative to vehicle control = 1, protein TB927.2.2440 […]-ATPASE SUBUNIT 6): 2.27
fold change (relative to vehicle control = 1, protein TB927.3.1120 GTP-BINDING NUCLEAR PROTEIN RTB2, PUTATIVE): 0.9
fold change (relative to vehicle control = 1, protein TB927.3.3490 HIGH MOBILITY GROUP PROTEIN, PUTATIVE): 0.89
fold change (relative to vehicle control = 1, protein TB927.3.4360 40S RIBOSOMAL PROTEIN S15A, PUTATIVE): 1.3
fold change (relative to vehicle control = 1, protein TB927.4.4650 […] SYNTHASE, PUTATIVE): 0.72
fold change (relative to vehicle control = 1, protein TB927.5.1930 HY[…], CONSERVED): 0.83
fold change (relative to vehicle control = 1, protein TB927.6.4140 PAR[…] COMPONENT, PUTATIVE): 0.9
fold change (relative to vehicle control = 1, protein TB927.7.2500 […] SUBUNIT 1): 0.91
fold change (relative to vehicle control = 1, protein TB927.7.4500 HY[…], CONSERVED): 0.87
fold change (relative to vehicle control = 1, protein TB927.8.1510 ATP-DEPENDENT DEAD/H RNA HELICASE, PUTATIVE): 1
fold change (vs vehicle control, protein TB09.160.3710 PRO[…] NUCLEAR ANTIGEN (PCNA), PUTATIVE): 0.94
fold change (vs vehicle control, protein TB11.01.4370 HY[…], CONSERVED): 0.98
fold change (vs vehicle control, protein TB427TMP.01.8510 T-COMPLEX PROTEIN 1, ALPHA SUBUNIT, PUTATIVE): 0.9
fold change (vs vehicle control, protein TB427.01.1670 HY[…], CONSERVED): 0.93
fold change (vs vehicle control, protein TB427.03.4750 AMINOPEPTIDASE, PUTATIVE): 0.96
fold change (vs vehicle control, protein TB427.05.3170 RIBOSE-PHOSPHATE PYROPHOSPHOKINASE, PUTATIVE): 0.92
fold change (vs vehicle control, protein TB427.06.1070 HY[…], CONSERVED): 0.95
fold change (vs vehicle control, protein TB427.06.4890 S-ADENOSYL[…], PUTATIVE): 0.98
fold change (vs vehicle control, protein TB427.08.3660 PROTEIN TRANSPORT PROTEIN SEC23): 0.95
fold change (vs vehicle control, protein TB427.10.10980 HEAT SHOCK PROTEIN 83): 0.99
fold change (vs vehicle control, protein TB427.10.11760 PUMILIO/PUF RNA BINDING PROTEIN 6): 0.91
fold change (vs vehicle control, protein TB427.10.14550 ATP-DEPENDENT DEAD/H RNA HELICASE, PUTATIVE): 0.99
fold change (vs vehicle control, protein TB427.10.2290 CHAPERONE PROTEIN DNAJ, PUTATIVE): 0.93
fold change (vs vehicle control, protein TB927.5.1630 HY[…], CONSERVED): 0.91
fold change (vs vehicle control, protein TB927.6.4980 40S RIBOSOMAL PROTEIN S14): 1.1
